Experimental data taken from PMC7553946, “Soticlestat, a novel cholesterol 24-hydroxylase inhibitor shows a therapeutic potential for neural hyperexcitation in mice” (Scientific Reports, 2020).

Key:
[1] = biological target: cholesterol 24-hydroxylase (CH24H, CYP46A1) (Homo sapiens, UniProt Q9Y6A2); test: […]cholesterol 24-hydroxylation assay by TLC with lysate of CH24H-expressing cells; format: biochemical
[2] = biological target: T1, GABA B1B (Homo sapiens, UniProt Q9UBS5); test: biochemical; design: radioligand displacement binding panel of CNS receptors and transporters, single concentration; conditions: read-out: Inhibition (%)
T1 construct: gene GABBR1; isoform 1B
Excerpt: (§1) Soticlestat (Supplementary Fig. S1) was discovered as a result of an iterative medicinal chemistry effort following high-throughput screening of an in vitro enzyme assay (Fig. 1A,B).

[3] = biological target: T2, Histamine H2 (Homo sapiens, UniProt P25021); test: biochemical; design: radioligand displacement binding panel of CNS receptors and transporters, single concentration; conditions: read-out: Inhibition (%)
T2 construct: gene HRH2
Excerpt: as §1

[4] = biological target: T3, Angiotensin AT2 (Homo sapiens, UniProt P50052); test: biochemical; design: radioligand displacement binding panel of CNS receptors and transporters, single concentration; conditions: read-out: Inhibition (%)
T3 construct: gene AGTR2
Excerpt: as §1

[5] = biological target: T4, GABA B1A (Homo sapiens, UniProt Q9UBS5); test: biochemical; design: radioligand displacement binding panel of CNS receptors and transporters, single concentration; conditions: read-out: Inhibition (%)
T4 construct: gene GABBR1; isoform 1A
Excerpt: as §1

[6] = biological target: T5, Serotonin transporter (Homo sapiens, UniProt P31645); test: biochemical; design: radioligand displacement binding panel of CNS receptors and transporters, single concentration; conditions: read-out: Inhibition (%)
T5 construct: gene SLC6A4
Excerpt: as §1

[7] = biological target: T6, Dopamine D3 (Homo sapiens, UniProt P35462); test: biochemical; design: radioligand displacement binding panel of CNS receptors and transporters, single concentration; conditions: read-out: Inhibition (%)
T6 construct: gene DRD3
Excerpt: as §1

[8] = biological target: T7, Muscarinic M3 (Homo sapiens, UniProt P20309); test: biochemical; design: radioligand displacement binding panel of CNS receptors and transporters, single concentration; conditions: read-out: Inhibition (%)
T7 construct: gene CHRM3
Excerpt: as §1

[9] = biological target: T8, Vasopressin V1A (Homo sapiens, UniProt P37288); test: biochemical; design: radioligand displacement binding panel of CNS receptors and transporters, single concentration; conditions: read-out: Inhibition (%)
T8 construct: gene AVPR1A
Excerpt: as §1

[10] = biological target: T9, Adrenergic β2 (Homo sapiens, UniProt P07550); test: biochemical; design: radioligand displacement binding panel of CNS receptors and transporters, single concentration; conditions: read-out: Inhibition (%)
T9 construct: gene ADRB2
Excerpt: as §1

[11] = biological target: T10, Muscarinic M2 (Homo sapiens, UniProt P08172); test: biochemical; design: radioligand displacement binding panel of CNS receptors and transporters, single concentration; conditions: read-out: Inhibition (%)
T10 construct: gene CHRM2
Excerpt: as §1

[12] = biological target: T11, Bradykinin B1 (Homo sapiens, UniProt P46663); test: biochemical; design: radioligand displacement binding panel of CNS receptors and transporters, single concentration; conditions: read-out: Inhibition (%)
T11 construct: gene BDKRB1
Excerpt: as §1

[13] = biological target: T12, Adenosine A2B (Homo sapiens, UniProt P29275); test: biochemical; design: radioligand displacement binding panel of CNS receptors and transporters, single concentration; conditions: read-out: Inhibition (%)
T12 construct: gene ADORA2B
Excerpt: as §1

[14] = biological target: T13, Opiate μ (OP3, MOP) (Homo sapiens, UniProt P35372); test: biochemical; design: radioligand displacement binding panel of CNS receptors and transporters, single concentration; conditions: read-out: Inhibition (%)
T13 construct: gene OPRM1
Excerpt: as §1

[15] = biological target: T14, Adrenergic β1 (Homo sapiens, UniProt P08588); test: biochemical; design: radioligand displacement binding panel of CNS receptors and transporters, single concentration; conditions: read-out: Inhibition (%)
T14 construct: gene ADRB1
Excerpt: as §1

[16] = biological target: T15, Cannabinoid CB1 (Homo sapiens, UniProt P21554); test: biochemical; design: radioligand displacement binding panel of CNS receptors and transporters, single concentration; conditions: read-out: Inhibition (%)
T15 construct: gene CNR1
Excerpt: as §1

[17] = biological target: T16, Adrenergic β3 (Homo sapiens, UniProt P13945); test: biochemical; design: radioligand displacement binding panel of CNS receptors and transporters, single concentration; conditions: read-out: Inhibition (%)
T16 construct: gene ADRB3
Excerpt: as §1

[18] = biological target: T17, Histamine H1 (Homo sapiens, UniProt P35367); test: biochemical; design: radioligand displacement binding panel of CNS receptors and transporters, single concentration; conditions: read-out: Inhibition (%)
T17 construct: gene HRH1
Excerpt: as §1

[19] = biological target: T18, Muscarinic M1 (Homo sapiens, UniProt P11229); test: biochemical; design: radioligand displacement binding panel of CNS receptors and transporters, single concentration; conditions: read-out: Inhibition (%)
T18 construct: gene CHRM1
Excerpt: as §1

[20] = biological target: T19, 5-HT2B (Homo sapiens, UniProt P41595); test: biochemical; design: radioligand displacement binding panel of CNS receptors and transporters, single concentration; conditions: read-out: Inhibition (%)
T19 construct: gene HTR2B
Excerpt: as §1

[21] = biological target: T20, Opiate κ (OP2, KOP) (Homo sapiens, UniProt P41145); test: biochemical; design: radioligand displacement binding panel of CNS receptors and transporters, single concentration; conditions: read-out: Inhibition (%)
T20 construct: gene OPRK1
Excerpt: as §1

[22] = biological target: T21, Dopamine D1 (Homo sapiens, UniProt P21728); test: biochemical; design: radioligand displacement binding panel of CNS receptors and transporters, single concentration; conditions: read-out: Inhibition (%)
T21 construct: gene DRD1
Excerpt: as §1

[23] = biological target: T22, Dopamine D4.2 (Homo sapiens, UniProt P21917); test: biochemical; design: radioligand displacement binding panel of CNS receptors and transporters, single concentration; conditions: read-out: Inhibition (%)
T22 construct: gene DRD4; D4.2 repeat variant
Excerpt: as §1

[24] = biological target: T23, Dopamine D2L (Homo sapiens, UniProt P14416); test: biochemical; design: radioligand displacement binding panel of CNS receptors and transporters, single concentration; conditions: read-out: Inhibition (%)
T23 construct: gene DRD2; long isoform
Excerpt: as §1

[25] = biological target: T24, Dopamine transporter (Homo sapiens, UniProt Q01959); test: biochemical; design: radioligand displacement binding panel of CNS receptors and transporters, single concentration; conditions: read-out: Inhibition (%)
T24 construct: gene SLC6A3
Excerpt: as §1

[26] = biological target: T25, Norepinephrine transporter (Homo sapiens, UniProt P23975); test: biochemical; design: radioligand displacement binding panel of CNS receptors and transporters, single concentration; conditions: read-out: Inhibition (%)
T25 construct: gene SLC6A2
Excerpt: as §1

[27] = biological target: T26, Peptidase, Metalloproteinase, Neutral Endopeptidase (Homo sapiens, UniProt P08473); test: biochemical; design: enzyme inhibition panel, single concentration; conditions: read-out: Inhibition (%)
T26 construct: gene MME
Excerpt: as §1

[28] = biological target: T27, Cyclooxygenase (COX-2) (Homo sapiens, UniProt P35354); test: biochemical; design: enzyme inhibition panel, single concentration; conditions: read-out: Inhibition (%)
T27 construct: gene PTGS2
Excerpt: as §1

[29] = biological target: T28, Phosphodiesterase 5 (Homo sapiens, UniProt O76074); test: biochemical; design: enzyme inhibition panel, single concentration; conditions: read-out: Inhibition (%)
T28 construct: gene PDE5A
Excerpt: as §1

[30] = biological target: T29, MAO B (Homo sapiens, UniProt P27338); test: biochemical; design: enzyme inhibition panel, single concentration; conditions: read-out: Inhibition (%)
T29 construct: gene MAOB
Excerpt: as §1

[31] = biological target: T30, Cyclooxygenase (COX-1) (Homo sapiens, UniProt P23219); test: biochemical; design: enzyme inhibition panel, single concentration; conditions: read-out: Inhibition (%)
T30 construct: gene PTGS1
Excerpt: as §1

[32] = biological target: T31, MAO A (Homo sapiens, UniProt P21397); test: biochemical; design: enzyme inhibition panel, single concentration; conditions: read-out: Inhibition (%)
T31 construct: gene MAOA
Excerpt: as §1

[33] = biological target: T32, Cholinesterase, Acetyl, ACES (Homo sapiens, UniProt P22303); test: biochemical; design: enzyme inhibition panel, single concentration; conditions: read-out: Inhibition (%)
T32 construct: gene ACHE
Excerpt: as §1

T27 sequence (P35354 whole entry): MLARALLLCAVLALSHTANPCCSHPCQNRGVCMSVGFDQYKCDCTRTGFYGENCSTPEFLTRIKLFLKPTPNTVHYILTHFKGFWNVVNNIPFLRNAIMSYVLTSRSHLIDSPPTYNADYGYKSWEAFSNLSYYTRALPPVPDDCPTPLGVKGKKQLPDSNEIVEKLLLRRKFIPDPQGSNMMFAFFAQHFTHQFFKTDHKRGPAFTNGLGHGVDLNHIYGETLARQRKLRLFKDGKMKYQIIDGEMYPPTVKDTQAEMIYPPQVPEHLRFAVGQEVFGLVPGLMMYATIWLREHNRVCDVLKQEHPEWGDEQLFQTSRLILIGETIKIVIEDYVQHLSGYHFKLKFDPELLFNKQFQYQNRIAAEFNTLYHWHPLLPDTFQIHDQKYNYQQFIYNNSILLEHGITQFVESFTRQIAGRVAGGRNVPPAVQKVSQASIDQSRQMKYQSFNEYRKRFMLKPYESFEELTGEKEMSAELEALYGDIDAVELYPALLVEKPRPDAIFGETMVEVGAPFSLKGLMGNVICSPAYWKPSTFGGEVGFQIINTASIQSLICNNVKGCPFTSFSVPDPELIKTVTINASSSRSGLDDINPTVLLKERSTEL
T24 sequence (Q01959 whole entry): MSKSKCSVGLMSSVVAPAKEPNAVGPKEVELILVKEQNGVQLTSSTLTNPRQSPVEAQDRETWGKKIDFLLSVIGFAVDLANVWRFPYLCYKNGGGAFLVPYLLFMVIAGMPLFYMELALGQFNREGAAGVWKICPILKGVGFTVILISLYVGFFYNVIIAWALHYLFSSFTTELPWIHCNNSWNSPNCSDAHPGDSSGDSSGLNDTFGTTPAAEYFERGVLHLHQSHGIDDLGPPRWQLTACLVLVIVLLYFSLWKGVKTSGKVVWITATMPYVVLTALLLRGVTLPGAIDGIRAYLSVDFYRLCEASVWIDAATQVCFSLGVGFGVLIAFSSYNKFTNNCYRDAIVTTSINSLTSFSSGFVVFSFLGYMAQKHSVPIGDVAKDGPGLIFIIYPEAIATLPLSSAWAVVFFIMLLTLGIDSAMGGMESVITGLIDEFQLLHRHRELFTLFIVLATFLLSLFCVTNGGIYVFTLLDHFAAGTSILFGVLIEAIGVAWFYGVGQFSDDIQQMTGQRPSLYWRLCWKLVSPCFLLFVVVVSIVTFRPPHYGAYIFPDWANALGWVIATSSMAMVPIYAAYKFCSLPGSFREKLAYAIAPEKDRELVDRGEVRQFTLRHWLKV
T22 sequence (P21917 whole entry): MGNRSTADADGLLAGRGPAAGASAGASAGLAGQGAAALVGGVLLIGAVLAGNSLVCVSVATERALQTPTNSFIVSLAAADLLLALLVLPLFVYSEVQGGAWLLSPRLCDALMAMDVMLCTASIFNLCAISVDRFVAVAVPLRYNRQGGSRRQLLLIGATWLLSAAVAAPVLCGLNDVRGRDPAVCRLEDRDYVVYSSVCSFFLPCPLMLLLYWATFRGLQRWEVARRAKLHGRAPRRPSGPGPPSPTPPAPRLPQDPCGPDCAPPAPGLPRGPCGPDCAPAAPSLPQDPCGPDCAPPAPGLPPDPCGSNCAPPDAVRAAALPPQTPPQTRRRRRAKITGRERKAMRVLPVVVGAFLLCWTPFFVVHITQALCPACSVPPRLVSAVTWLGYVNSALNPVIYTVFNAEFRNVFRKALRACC
T7 sequence (P20309 whole entry): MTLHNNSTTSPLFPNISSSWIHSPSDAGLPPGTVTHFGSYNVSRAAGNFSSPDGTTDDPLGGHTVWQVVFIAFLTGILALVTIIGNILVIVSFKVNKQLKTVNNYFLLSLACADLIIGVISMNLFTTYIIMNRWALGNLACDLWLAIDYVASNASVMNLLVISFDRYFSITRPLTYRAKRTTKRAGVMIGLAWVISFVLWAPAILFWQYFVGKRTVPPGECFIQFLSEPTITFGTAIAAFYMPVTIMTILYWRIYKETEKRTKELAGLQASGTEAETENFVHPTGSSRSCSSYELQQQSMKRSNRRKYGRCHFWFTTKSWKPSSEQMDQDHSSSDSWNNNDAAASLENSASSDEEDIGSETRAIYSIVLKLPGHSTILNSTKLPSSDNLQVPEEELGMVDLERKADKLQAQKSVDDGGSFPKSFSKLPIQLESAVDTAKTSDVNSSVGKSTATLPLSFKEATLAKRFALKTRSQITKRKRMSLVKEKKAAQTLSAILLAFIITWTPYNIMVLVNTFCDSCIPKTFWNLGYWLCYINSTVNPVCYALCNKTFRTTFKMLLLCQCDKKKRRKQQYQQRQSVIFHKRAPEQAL
T31 sequence (P21397 whole entry): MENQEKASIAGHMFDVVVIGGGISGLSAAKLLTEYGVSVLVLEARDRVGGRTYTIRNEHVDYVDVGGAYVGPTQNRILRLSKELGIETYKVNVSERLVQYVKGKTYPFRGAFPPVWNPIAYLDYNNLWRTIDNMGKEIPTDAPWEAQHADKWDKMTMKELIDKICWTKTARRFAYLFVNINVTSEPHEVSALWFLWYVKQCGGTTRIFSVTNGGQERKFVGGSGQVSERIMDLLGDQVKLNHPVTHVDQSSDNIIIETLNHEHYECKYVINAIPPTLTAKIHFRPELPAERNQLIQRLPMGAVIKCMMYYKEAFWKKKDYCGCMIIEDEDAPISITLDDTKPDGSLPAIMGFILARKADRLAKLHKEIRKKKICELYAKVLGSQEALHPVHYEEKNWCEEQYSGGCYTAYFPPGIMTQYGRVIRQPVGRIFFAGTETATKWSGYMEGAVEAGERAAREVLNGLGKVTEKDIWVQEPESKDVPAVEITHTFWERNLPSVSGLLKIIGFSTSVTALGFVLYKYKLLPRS
T10 sequence (P08172 whole entry): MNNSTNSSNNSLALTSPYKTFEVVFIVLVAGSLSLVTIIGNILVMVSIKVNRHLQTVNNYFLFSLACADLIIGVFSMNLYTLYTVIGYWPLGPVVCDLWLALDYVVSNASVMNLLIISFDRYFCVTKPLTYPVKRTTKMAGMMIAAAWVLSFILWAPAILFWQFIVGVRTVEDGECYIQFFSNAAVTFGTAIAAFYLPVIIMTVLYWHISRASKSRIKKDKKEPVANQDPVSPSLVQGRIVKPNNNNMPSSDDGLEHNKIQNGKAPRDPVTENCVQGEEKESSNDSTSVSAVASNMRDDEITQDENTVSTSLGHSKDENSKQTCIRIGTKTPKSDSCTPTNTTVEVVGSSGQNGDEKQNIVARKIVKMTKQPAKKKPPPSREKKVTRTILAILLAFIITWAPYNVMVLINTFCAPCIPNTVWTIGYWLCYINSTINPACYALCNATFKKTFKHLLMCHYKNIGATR
T9 sequence (P07550 whole entry): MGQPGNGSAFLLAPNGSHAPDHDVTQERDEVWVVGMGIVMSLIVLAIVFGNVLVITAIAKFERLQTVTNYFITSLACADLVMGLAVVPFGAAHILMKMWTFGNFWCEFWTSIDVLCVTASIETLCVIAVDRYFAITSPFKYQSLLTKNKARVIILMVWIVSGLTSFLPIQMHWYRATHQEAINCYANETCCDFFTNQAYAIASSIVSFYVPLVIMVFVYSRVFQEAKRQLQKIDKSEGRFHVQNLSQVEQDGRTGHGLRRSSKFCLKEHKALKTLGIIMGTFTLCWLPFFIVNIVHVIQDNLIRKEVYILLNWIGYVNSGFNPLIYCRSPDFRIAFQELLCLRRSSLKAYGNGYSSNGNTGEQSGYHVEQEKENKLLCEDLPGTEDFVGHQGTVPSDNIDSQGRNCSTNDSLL
T18 sequence (P11229 whole entry): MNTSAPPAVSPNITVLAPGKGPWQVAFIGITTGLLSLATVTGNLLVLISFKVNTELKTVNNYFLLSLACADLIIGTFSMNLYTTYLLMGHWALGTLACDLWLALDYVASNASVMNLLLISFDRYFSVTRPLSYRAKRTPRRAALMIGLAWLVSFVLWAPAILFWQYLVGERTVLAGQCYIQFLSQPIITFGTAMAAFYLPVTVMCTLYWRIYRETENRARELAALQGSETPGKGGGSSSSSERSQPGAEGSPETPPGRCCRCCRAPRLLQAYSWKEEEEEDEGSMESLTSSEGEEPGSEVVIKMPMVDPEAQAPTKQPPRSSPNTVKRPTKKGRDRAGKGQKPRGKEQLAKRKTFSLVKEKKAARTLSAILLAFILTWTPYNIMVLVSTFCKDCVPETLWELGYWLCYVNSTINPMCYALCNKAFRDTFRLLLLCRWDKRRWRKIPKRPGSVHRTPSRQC
T11 sequence (P46663 whole entry): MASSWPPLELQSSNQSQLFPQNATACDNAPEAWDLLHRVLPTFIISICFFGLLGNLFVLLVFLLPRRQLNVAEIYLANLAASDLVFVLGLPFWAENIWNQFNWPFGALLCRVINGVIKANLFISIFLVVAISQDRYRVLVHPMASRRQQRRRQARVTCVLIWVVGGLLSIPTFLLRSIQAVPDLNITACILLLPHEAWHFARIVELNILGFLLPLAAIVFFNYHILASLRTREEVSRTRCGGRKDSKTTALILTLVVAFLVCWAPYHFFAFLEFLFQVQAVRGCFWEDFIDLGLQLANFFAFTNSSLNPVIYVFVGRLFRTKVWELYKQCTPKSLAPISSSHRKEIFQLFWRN
T13 sequence (P35372 whole entry): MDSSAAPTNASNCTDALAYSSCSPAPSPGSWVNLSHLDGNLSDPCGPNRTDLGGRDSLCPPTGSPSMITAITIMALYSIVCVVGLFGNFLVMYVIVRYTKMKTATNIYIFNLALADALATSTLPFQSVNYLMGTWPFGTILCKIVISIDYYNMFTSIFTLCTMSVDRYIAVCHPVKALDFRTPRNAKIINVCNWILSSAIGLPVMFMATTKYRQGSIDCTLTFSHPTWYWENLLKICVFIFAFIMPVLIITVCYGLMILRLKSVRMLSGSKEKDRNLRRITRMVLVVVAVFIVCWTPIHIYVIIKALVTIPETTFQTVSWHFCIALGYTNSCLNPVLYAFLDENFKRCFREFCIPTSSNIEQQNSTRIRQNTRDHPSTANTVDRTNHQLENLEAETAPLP

With `O=C(c1cccnc1-c1ccncc1)N1CCC(O)(Cc2ccccc2)CC1` [soticlestat, (4-benzyl-4-hydroxypiperidin-1-yl)(2,4′-bipyridin-3-yl) methanone] as the compound, how does the IC50 [1] read?
The IC50 was 4.5 nM.

And the inhibition at 10 µM [2]?
Its inhibition at 10 µM is 8%.

What about the inhibition at 10 µM [3] of the same compound?
Its inhibition at 10 µM is 5%.

And the inhibition at 10 µM [4]?
Its inhibition at 10 µM is -10%.

And the inhibition at 10 µM [5]?
The inhibition at 10 µM was 6%.

And the inhibition at 10 µM [6]?
The inhibition at 10 µM was 6%.

And the inhibition at 10 µM [7]?
The inhibition at 10 µM was 5%.

And the inhibition at 10 µM [8]?
Its inhibition at 10 µM is 12%.

And the inhibition at 10 µM [9]?
The inhibition at 10 µM was -11%.

And the inhibition at 10 µM [10]?
The inhibition at 10 µM was 6%.

And the inhibition at 10 µM [11]?
Its inhibition at 10 µM is 1%.

And the inhibition at 10 µM [12]?
Its inhibition at 10 µM is 13%.

And the inhibition at 10 µM [13]?
Its inhibition at 10 µM is 20%.

And the inhibition at 10 µM [14]?
The inhibition at 10 µM was -1%.

What about the inhibition at 10 µM [15] of the same compound?
Its inhibition at 10 µM is -4%.

What about the inhibition at 10 µM [16] of the same compound?
Its inhibition at 10 µM is -5%.

What about the inhibition at 10 µM [17] of the same compound?
Its inhibition at 10 µM is -7%.

What about the inhibition at 10 µM [18] of the same compound?
Its inhibition at 10 µM is -2%.

What about the inhibition at 10 µM [19] of the same compound?
The inhibition at 10 µM was 7%.

What about the inhibition at 10 µM [20] of the same compound?
The inhibition at 10 µM was 5%.

What about the inhibition at 10 µM [21] of the same compound?
The inhibition at 10 µM was -1%.

What about the inhibition at 10 µM [22] of the same compound?
Its inhibition at 10 µM is 5%.

And the inhibition at 10 µM [23]?
The inhibition at 10 µM was 0%.

What about the inhibition at 10 µM [24] of the same compound?
Its inhibition at 10 µM is 15%.

What about the inhibition at 10 µM [25] of the same compound?
The inhibition at 10 µM was 0%.

And the inhibition at 10 µM [26]?
The inhibition at 10 µM was -1%.

What about the inhibition at 10 µM [27] of the same compound?
Its inhibition at 10 µM is -4%.

What about the inhibition at 10 µM [28] of the same compound?
The inhibition at 10 µM was 4%.

And the inhibition at 10 µM [29]?
The inhibition at 10 µM was -2%.

What about the inhibition at 10 µM [30] of the same compound?
Its inhibition at 10 µM is 0%.

What about the inhibition at 10 µM [31] of the same compound?
Its inhibition at 10 µM is -14%.

And the inhibition at 10 µM [32]?
Its inhibition at 10 µM is 1%.

And the inhibition at 10 µM [33]?
The inhibition at 10 µM was 0%.
